One assay addresses T1, HMGCR (Homo sapiens, UniProt P04035).
T1 construct: oxidation of NADPH by the catalytic subunit of HMGCR in the presence of the substrate HMG CoA; purchased Sigma-Aldrich
T1 sequence (P04035 340-888 limits assumed): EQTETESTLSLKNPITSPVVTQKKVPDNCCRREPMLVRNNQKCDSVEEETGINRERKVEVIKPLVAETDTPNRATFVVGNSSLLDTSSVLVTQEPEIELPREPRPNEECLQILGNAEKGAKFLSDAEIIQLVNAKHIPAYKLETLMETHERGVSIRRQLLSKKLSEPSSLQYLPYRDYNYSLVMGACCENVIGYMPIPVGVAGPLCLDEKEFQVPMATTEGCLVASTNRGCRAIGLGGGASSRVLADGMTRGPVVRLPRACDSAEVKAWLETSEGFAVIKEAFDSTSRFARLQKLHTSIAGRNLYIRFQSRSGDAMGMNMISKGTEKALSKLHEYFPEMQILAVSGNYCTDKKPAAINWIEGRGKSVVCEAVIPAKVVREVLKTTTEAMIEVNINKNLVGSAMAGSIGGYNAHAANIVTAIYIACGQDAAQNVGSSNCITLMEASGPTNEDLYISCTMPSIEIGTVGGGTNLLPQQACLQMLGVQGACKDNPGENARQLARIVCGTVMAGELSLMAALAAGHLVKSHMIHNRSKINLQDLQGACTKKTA
The experiment in a line: HMGCR colorimetric activity assay. The assay is classed as biochemical. On the procedure:
HMGCR activity was measured using GCoA Reductase Assay Kit (Sigma-Aldrich) according to the manufacturer's protocol. The assay is based on the spectrophotometric measurement of the decrease in absorbance at 340 nm, which represents the oxidation of NADPH by the catalytic subunit of HMGCR in the presence of the substrate HMG CoA.

For the next assay, the target named is T2, FPPS (Homo sapiens, UniProt P14324).
T2 sequence (P14324 1-419): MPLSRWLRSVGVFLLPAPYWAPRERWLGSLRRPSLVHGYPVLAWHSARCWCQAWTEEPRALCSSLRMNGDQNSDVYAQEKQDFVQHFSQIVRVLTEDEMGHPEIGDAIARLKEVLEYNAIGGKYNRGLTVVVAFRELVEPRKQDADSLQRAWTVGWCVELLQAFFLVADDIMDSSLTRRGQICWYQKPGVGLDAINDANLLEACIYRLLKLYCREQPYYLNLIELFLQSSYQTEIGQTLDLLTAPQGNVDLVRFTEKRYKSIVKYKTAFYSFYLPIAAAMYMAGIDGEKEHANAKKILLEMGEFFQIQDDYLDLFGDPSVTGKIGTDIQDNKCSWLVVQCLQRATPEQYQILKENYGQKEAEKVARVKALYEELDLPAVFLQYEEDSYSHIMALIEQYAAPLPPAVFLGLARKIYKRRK
In words: Surface plasmon resonance on immobilized FPPS. Format: binding. The protocol: Surface plasmon resonance (SPR) was measured using a BIAcore 3000 instrument at 25° C. FPPS (2800 RU) was immobilized on flow cells of a CM5-chip. The running buffer was HBSEP pH 7.4 (20 mM Hepes, 150 mM NaCl, and 0.005% P20). Regeneration was performed with 10 mM glycine, pH 3.0. […] Data were evaluated using Scrubber2 (Biologic software) and BIAeval software (BIAcore).

In the next assay the test system is HDJ2. The experiment in a line: Western blot analysis of HDJ2 farnesylation. The assay is classed as cell-based, human.

Usually Kd stands for the equilibrium constant for the complex coming apart. In the case of `N#CC(c1ccccn1)c1ccnc(N2CCN(Cc3ccccc3F)CC2)n1` (stereo not shown) [Mono-AP1, {2-[4-(2-fluoro-benzyl)-piperazin-1-yl]-pyrimidin-4-yl}-pyridin-2-yl-acetonitrile], the “IC50 (μM) HMGCR” value against HMGCR is on record as “No inhibition”. Moreover, the “direct interaction with FPPS (SPR), in words” value on FPPS is “confirmed the direct interactions”. Further, on FPPS (SPR, BIAcore 3000, 25° C., read-out: Kd (M), equilibrium dissociation constant), the equilibrium dissociation constant (Kd) was found to be 2.4e-05 M. Further, the “unfarnesylated form of HDJ2” value in the assay on HDJ2 is “increase of the unfarnesylated form of the protein”.

The record behind these values is US10654838B2, “Aminopyridine compounds useful as inhibitors of protein prenylation” (INSTITUT NATIONAL DE LA SANTE ET DE LA RECHERCHE MEDICALE …, priority 2014, dated 2020).
